Measurements reported in PMC12029992, “Beyond-Rule-of-Five Compounds Are Not Different: In Vitro–In Vivo Extrapolation of Female CD-1 Mouse Clearance Based on Merck Healthcare KGaA Compound Set” (Pharmaceuticals, 2025).
Where two headings read alike, the source gives them in different places.

Experiments:
[1] = Determination of CLint in mouse hepatocytes (hepatocyte stability); type: in vitro ADME; settings: female CD-1 mouse hepatocytes
Description: Hepatocyte stability was assessed, as described previously, on a liquid handling platform (Hamilton Microlab Vantage, Bonaduz, Switzerland) using cryopreserved pooled female CD-1 mouse hepatocytes in suspension. Viability was determined in a Neubauer chamber by trypan blue staining and was always above 70%. Compounds (1 µM final) were incubated with hepatocytes at a cell density of 0.2 × 10^6 cells/mL in Krebs–Henseleit buffer (pH 7.4). […] Incubations were carried out in duplicate at 37 °C under an atmosphere of 5% CO2 and 95% humidity. Aliquots were taken at time points of 0, 10, 20, 40, 60, and 90 min and quenched with a two-fold volume of an ACN solution containing 1.5 µM of an internal standard. The supernatants were further diluted to a ratio of 1:3 (v/v) with supernatants from other compound incubations for bioanalytical cocktailing designed to avoid analytical interference. The samples were analyzed by UHPLC-MS/MS (for details, see the Supplementary Materials).
For quantitation with the Analyst software (version 1.7.2), MS peak area ratios of the compounds and an internal standard were calculated and transformed to nanomolar concentrations determined based on a four-point calibration comprising 1.2% to 150% of the incubation concentration. Calibration standards were prepared using heat-inactivated (60 °C for at least 15 min) hepatocytes as a biomatrix and processed in duplicate, as described for the test samples.
For data analysis, the concentration data were plotted against the incubation time, the first-order kel was determined by non-linear regression using Biorails version 5.10.22/Morphit version 8.0 (The Edge Software Consultancy, Guildford, UK), and CLint values (expressed in µL/min/10^6 cells) were obtained by normalizing kel with the hepatocyte concentration.

Kinetic solubility = type: physicochemical
Description: The kinetic solubility (KSOL) determination is carried out in a 96-well plate filtration format where the sample (2 μL of sample stock solution 10mM DMSO) is combined to 98 μL of 20 mM buffer phosphate pH 7.4. The filtration plate is then incubated and agitated at 250 rpm for 120 minutes. After stirring, the plate is centrifuged at 2500 rpm for 3 minutes, allowing all solvent to be collected in the lower microplate. Next to avoid pre-cipitation, 50 μL of the filtered solution is diluted with 50 μL of 2% DMSO in pH 7.4 buffer solution to yield a 100 μM sample solution ready for H(U)PLC analytics.
For the standard, each compound is prepared by combining 2 μL of the sample stock solution 10mM DMSO to 198 μL Acetonitrile/Methanol/Eluant A ([…]).
For the evaluation, wavelength with maximum sensitivity is to be selected. The kinetic solubility is determined according to following formulas, whereas S is the targeted value […]
L = area௦௔௠௣௟௘ × concentration௦௧௔௡ௗ௔௥ௗ × dilution factor௦௔௠௣௟௘area௦௧௔௡ௗ௔௥ௗ × dilution factor௦௧௔௡ௗ௔௥ௗ with: L= Concentration of solved compound in buffer [μg/ml] and S= Molar concentra-tion of solved compound in buffer [mol/L]
Chromatographic conditions: Column Waters XBridge Column C8 3.5μm (Waters Cat No 186003053); Column temperature 37°C; Autosampler Room temperature (approx.
25°C); Injection volume 10 μL (HPLC) / 3μL (UPLC); Wavelength 220 nm, 254 nm, 290 nm. Eluant A: 1 mL Formic Acid + 999 mL Ultrapure Water; Eluant B: 1 mL Formic Acid […]
Table S5. Gradient for UHPLC analysis
Time Eluent A (%) Eluent B (%) Flow (ml/min)
(§1) Reagents and Materials: Phosphate Buffer 20mM pH 7.4: EMS, Art No. 11601-40; DMSO Merck Art. No. 102950; Acetonitrile Merck, Art. No. 100030, Methanol Merck Art. No.
106007; Formic Acid Merck Art.No.100264; Acetonitrile Merck Art. No.10030; Filtration Plate Millipore MultiScreen HTS HV 0.45uM; 96 Well Millipore Art. No. MSHVN4510; Column Waters XBridge Column C8 3.5μm (Waters Cat. No. 186003053); HPLC vials VWR Cat. No. 5480028; Micro-Inserts VWR Cat. No. 548-0006; Screw caps VWR Cat. No. […]

Caco-2 cells (TC7 clone) = assay: Caco-2 assay (permeability, efflux ratio); type: in vitro ADME
Description: as §1
106007; Formic Acid Merck Art.No.100264; Acetonitrile Merck Art. No.10030; Filtration Plate Millipore MultiScreen HTS HV 0.45uM; 96 Well Millipore Art. No. MSHVN4510; Column Waters XBridge Column C8 3.5μm (Waters Cat. No. 186003053); HPLC vials VWR Cat. No. 5480028; Micro-Inserts VWR Cat. No. 548-0006; Screw caps VWR Cat. No.
The Caco-2 assays were performed in a transwell assay setup using Caco-2 cells (TC7 clone). The Caco-2 cells were seeded into the apical wells (125000 cells per well) in DMEM (Dulbecco’s Modified Eagle’s Medium) with 20% FBS (fetal bovine serum) into Corning 24-well transwell plates and cultured for 14-21 days. Prior to the experiment, the plates were washed with HBSS (Hanks' Balanced Salt Solution). Apparent permea-bility Papp was determined from apical-to-basolateral (Papp,AB) by adding 1 […] in HBSS into the apical compartment and HBSS in the basolateral compart-ment, and vice versa for Papp,BA from basolateral-to-apical. Apical volumes were 250 μL, basolateral volumes were 750 μL. DMSO content was <1 % (v/v) in all wells. Monolayer tightness was controlled using melagatran as tightness marker.
Samples were taken from both compartments at timepoint t0 and after 2 hours incuba-tion at 37 °C in 5% CO2 and 100% humidity, and analyzed via UHPLC-MS/MS. The ap-parent permeability Papp was calculated as follows:
P௔௣௣ = Δc௥௘௖Δt∙ V௥௘௖A x cௗ௢௡,଴
Where ∆crec/∆t is the change of concentration in the receiver compartment over the incu-bation time (i.e. 2 hours), Vrec is volume of the receiver compartment, cdon,0 is the concen-tration in the donor compartment at time t0, and A is the surface of the membrane on which the cells grew (i.e. 0.33 cm²).
Mass balance was checked after the experiment by determining the recovery after the […]
Recovery = nௗ௢௡,௘௡ௗ + nௗ௢௡,௥௘௖= cௗ௢௡,௘௡ௗ ∙Vௗ௢௡ + c௥௘௖ ,௘௡ௗ ∙V௥௘௖
The efflux ratio (ER) describes affinity towards efflux transporters:
The geometric mean of Papp,AB and Papp,BA was used as passive permeability Papp,pass.

Row | Hepatocyte CLint [1] [µl/min/1e6 cells] | Kinetic solubility PBS pH 7.4 (Kinetic solubility) [µM] | CaCo-2 Efflux ratio ER (Caco-2 cells (TC7 clone)) | CaCo-2 Papp Passive (Caco-2 cells (TC7 clone); apparent passive permeability) | CaCo-2 Efflux ratio ER (Caco-2 cells (TC7 clone); Caco-2) | CaCo-2 Papp Passive (Caco-2 cells (TC7 clone); Caco-2) | SMILES
1 | 11.9 | > 200 | 2.6 | 25.85 10e-6 cm/s | – | – | O=C(O)c1cc(-c2ccc(F)cc2F)ccc1O [MSC001]
2 | 16.5 | 156.7 | 1.4 | 31.60 10e-6 cm/s | – | – | CNC(=O)c1cc(Oc2ccc3nc(N[C@@H]4CCCC[C@H]4O)sc3c2)ccn1 [MSC003]
3 | 70.5 | 165.4 | 48.4 | 2.67 10e-6 cm/s | – | – | COc1cccc(OCCCN)c1-c1cc(Nc2cnc(C#N)cn2)n[nH]1 [MSC020]
4 | 222.1 | 105.1 | – | – | 1.0 | 24.10 10e-6 cm/s | N#Cc1c[nH]c2c(C(=O)N3CCN(CCc4ccc(F)cc4)CC3)cccc12 [MSC213]
